In the kinase profiling compilation of Christmann-Franck et al. (2016):

Legend:
Experiment in all cases: radiometric filter-binding kinase assay
PRKCA (human) = PRKCA (human) (UniProt P17252)
[1] = tested on: AKT1 (human), P31749 [S473D]
MAP2K6 (human) = MAP2K6 (human) (UniProt P52564)
MAP3K9 (human) = MAP3K9 (human) (UniProt P80192)
MARK4 (human) = MARK4 (human) (UniProt Q96L34)
ERBB4 (human) = ERBB4 (human) (UniProt Q15303)
MAP3K11 (human) = MAP3K11 (human) (UniProt Q16584)
MAPK9 (human) = MAPK9 (human) (UniProt P45984); conditions: compound 10.0 µM
MST4 (human) = MST4 (human) (UniProt Q9P289)
EPHA2 (human) = EPHA2 (human) (UniProt P29317)
NTRK1 (human) = NTRK1 (human) (UniProt P04629)
MAPKAPK2 (human) = MAPKAPK2 (human) (UniProt P49137)
BRSK1 (human) = BRSK1 (human) (UniProt Q8TDC3)
NUAK1 (human) = NUAK1 (human) (UniProt O60285)
EPHB3 (human) = EPHB3 (human) (UniProt P54753)
PIM1 (human) = PIM1 (human) (UniProt P11309)
PIM1 (human), sequence (P11309 whole entry, looked up): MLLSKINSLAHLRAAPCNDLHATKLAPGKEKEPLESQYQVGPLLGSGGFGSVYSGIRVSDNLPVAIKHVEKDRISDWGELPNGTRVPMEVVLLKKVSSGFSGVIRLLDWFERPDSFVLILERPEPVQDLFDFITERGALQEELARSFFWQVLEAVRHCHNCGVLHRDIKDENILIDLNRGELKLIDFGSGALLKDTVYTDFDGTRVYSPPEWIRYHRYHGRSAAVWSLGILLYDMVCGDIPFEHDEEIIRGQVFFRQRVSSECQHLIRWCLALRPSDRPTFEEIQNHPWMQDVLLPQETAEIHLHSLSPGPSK

PKN2 (human) = PKN2 (human) (UniProt Q16513)
AURKA (human) = AURKA (human) (UniProt O14965)
MAP2K2 (human) = MAP2K2 (human) (UniProt P36507)
EEF2K (human) = EEF2K (human) (UniProt O00418)
DYRK2 (human) = DYRK2 (human) (UniProt Q92630)
DYRK2 (human), sequence (Q92630 whole entry, looked up): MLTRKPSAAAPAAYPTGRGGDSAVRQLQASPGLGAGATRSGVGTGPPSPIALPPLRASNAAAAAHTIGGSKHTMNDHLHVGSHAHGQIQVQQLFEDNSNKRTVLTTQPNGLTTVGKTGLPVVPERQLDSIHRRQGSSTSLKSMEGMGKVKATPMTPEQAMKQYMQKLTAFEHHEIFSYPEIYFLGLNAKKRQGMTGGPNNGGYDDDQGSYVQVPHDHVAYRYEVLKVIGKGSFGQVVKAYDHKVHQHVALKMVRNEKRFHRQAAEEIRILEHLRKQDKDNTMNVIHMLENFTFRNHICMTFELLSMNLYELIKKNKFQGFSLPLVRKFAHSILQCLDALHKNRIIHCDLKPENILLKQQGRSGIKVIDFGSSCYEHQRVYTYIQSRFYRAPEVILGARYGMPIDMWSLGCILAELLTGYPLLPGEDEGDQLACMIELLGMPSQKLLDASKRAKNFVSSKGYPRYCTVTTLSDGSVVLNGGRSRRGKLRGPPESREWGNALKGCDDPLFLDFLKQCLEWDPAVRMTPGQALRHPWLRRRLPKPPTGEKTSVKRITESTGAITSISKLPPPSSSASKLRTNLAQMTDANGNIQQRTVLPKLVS

PAK4 (human) = PAK4 (human) (UniProt O96013)
[2] = target: STK11 CAB39 STRADA (human) (UniProt Q9Y376+Q7RTN6+Q15831)
MAP3K5 (human) = MAP3K5 (human) (UniProt Q99683)
HIPK3 (human) = HIPK3 (human) (UniProt Q9H422)
MELK (human) = MELK (human) (UniProt Q14680)
MAPK12 (human) = MAPK12 (human) (UniProt P53778)
MARK2 (human) = MARK2 (human) (UniProt Q7KZI7)
PAK6 (human) = PAK6 (human) (UniProt Q9NQU5)
PAK6 (human), sequence (Q9NQU5 whole entry, looked up): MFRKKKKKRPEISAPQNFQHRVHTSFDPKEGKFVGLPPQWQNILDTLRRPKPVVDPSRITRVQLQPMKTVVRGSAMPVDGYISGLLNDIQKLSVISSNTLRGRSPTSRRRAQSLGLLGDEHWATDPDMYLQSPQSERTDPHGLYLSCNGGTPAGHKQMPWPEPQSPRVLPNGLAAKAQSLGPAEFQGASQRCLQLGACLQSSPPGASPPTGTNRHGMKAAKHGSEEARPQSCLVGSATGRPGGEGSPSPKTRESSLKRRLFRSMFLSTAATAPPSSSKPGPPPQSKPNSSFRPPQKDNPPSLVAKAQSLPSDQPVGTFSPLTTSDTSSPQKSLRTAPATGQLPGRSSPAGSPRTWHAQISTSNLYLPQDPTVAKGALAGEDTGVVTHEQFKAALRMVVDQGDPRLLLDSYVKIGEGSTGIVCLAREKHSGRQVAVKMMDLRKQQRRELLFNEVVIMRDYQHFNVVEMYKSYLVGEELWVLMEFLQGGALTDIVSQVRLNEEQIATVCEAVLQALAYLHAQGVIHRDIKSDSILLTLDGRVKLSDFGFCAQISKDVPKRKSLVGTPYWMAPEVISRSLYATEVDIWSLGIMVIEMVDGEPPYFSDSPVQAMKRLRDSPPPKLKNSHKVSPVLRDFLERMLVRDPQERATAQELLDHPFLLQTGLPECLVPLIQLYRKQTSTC

MAP3K1 (human) = MAP3K1 (human) (UniProt Q13233)
MAP3K7 TAB1 (human) = MAP3K7 TAB1 (human) (UniProt Q15750+O43318)
GSK3B (human) = GSK3B (human) (UniProt P49841)
GSK3B (human), sequence (P49841 whole entry, looked up): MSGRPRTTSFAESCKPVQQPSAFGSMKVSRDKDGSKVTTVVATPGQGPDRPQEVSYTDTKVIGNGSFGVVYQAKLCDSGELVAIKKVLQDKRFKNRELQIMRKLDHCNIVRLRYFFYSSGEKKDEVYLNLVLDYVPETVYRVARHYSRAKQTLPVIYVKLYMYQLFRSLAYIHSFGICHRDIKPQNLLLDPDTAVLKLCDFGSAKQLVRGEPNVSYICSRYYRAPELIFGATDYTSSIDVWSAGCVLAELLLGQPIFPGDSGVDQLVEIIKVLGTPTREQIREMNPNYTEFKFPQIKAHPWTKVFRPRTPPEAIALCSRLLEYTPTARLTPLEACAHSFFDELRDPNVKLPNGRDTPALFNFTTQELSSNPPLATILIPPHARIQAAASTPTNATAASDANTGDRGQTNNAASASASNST

IRAK4 (human) = IRAK4 (human) (UniProt Q9NWZ3)
IRAK4 (human), sequence (Q9NWZ3 whole entry, looked up): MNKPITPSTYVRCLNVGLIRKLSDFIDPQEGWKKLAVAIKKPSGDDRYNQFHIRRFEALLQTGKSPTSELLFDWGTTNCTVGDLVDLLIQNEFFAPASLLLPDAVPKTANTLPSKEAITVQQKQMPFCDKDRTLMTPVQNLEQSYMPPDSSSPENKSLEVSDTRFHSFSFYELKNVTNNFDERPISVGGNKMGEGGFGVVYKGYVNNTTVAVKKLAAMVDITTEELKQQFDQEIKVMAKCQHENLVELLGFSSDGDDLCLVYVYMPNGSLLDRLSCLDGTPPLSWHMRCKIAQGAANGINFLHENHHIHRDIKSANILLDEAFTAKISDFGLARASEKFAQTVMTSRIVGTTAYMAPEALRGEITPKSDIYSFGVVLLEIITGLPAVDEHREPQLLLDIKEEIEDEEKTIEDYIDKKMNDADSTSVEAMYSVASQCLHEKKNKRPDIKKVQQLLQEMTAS

MARK1 (human) = MARK1 (human) (UniProt Q9P0L2)
INSR (human) = INSR (human) (UniProt P06213)
PRKCZ (human) = PRKCZ (human) (UniProt Q05513); conditions: compound 10.0 µM

MAP3K9 (human), sequence (P80192 whole entry, looked up): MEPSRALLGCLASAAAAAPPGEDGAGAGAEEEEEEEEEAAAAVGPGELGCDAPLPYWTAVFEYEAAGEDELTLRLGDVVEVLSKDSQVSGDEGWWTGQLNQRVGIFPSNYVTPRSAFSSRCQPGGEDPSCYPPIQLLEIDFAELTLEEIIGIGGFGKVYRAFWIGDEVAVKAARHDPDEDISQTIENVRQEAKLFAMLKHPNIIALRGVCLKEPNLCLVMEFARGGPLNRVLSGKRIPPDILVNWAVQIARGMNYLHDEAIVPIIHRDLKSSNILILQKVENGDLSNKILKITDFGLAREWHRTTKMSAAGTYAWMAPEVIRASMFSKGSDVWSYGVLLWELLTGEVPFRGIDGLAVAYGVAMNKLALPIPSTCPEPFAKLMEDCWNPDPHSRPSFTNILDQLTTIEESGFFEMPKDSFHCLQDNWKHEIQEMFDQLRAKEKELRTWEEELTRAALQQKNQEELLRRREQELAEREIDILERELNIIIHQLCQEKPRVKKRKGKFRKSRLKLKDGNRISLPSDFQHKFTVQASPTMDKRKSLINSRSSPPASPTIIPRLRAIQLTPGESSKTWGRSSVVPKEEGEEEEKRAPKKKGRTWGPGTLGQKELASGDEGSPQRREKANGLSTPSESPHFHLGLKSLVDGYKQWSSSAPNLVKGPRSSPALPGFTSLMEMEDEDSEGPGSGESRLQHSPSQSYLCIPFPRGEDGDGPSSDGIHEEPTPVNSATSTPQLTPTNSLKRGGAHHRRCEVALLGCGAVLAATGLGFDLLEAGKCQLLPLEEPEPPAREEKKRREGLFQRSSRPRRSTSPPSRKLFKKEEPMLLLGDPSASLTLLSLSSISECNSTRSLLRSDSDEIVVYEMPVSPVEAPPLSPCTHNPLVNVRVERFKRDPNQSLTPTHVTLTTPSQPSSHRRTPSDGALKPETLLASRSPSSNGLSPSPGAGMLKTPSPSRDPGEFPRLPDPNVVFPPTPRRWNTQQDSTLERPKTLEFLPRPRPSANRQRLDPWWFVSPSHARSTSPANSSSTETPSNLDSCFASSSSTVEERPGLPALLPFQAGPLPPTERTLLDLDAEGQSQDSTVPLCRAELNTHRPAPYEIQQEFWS
MARK4 (human), sequence (Q96L34 whole entry, looked up): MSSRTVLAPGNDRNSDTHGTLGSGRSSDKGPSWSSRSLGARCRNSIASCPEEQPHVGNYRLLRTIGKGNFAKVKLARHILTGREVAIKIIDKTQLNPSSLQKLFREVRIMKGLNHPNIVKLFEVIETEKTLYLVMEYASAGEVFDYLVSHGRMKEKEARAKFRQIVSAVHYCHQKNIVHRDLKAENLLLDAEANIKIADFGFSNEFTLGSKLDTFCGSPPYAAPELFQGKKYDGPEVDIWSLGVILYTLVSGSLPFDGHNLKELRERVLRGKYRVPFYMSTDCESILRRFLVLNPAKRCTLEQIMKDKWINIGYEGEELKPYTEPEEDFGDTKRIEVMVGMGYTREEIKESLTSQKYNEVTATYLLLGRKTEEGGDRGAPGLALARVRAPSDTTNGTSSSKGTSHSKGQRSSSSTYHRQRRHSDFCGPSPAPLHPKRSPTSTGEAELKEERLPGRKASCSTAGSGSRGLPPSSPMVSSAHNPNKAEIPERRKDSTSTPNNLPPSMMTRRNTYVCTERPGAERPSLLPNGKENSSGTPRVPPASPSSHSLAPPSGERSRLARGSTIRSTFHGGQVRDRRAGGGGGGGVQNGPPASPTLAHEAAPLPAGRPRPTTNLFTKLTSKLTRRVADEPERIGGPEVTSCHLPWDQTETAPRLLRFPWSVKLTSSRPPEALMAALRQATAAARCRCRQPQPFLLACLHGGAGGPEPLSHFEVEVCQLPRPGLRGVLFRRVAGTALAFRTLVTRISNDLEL

CC(C)(C#N)c1ccc(N2C(=O)OCc3cnc4ccc(-c5cnc6ccccc6c5)cc4c32)cc1
residual activity (PRKCA (human); compound 1.0 µM): 101% | residual activity (PRKCA (human); compound 10.0 µM): 94% | residual activity ([1]; compound 1.0 µM): 102% | residual activity ([1]; compound 10.0 µM): 117% | residual activity (MAP2K6 (human); compound 1.0 µM): 101% | residual activity (MAP2K6 (human); compound 10.0 µM): 92% | residual activity (MAP3K9 (human); compound 1.0 µM): 91% | residual activity (MAP3K9 (human); compound 10.0 µM): 89% | residual activity (MARK4 (human); compound 1.0 µM): 100% | residual activity (MARK4 (human); compound 10.0 µM): 86% | residual activity (ERBB4 (human); compound 1.0 µM): 110% | residual activity (ERBB4 (human); compound 10.0 µM): 97% | residual activity (MAP3K11 (human); compound 1.0 µM): 81% | residual activity (MAP3K11 (human); compound 10.0 µM): 83% | residual activity (MAPK9 (human)): 97% | residual activity (MST4 (human); compound 1.0 µM): 93% | residual activity (MST4 (human); compound 10.0 µM): 83% | residual activity (EPHA2 (human); compound 1.0 µM): 69% | residual activity (EPHA2 (human); compound 10.0 µM): 81% | residual activity (NTRK1 (human); compound 1.0 µM): 50% | residual activity (MAPKAPK2 (human); compound 1.0 µM): 115% | residual activity (BRSK1 (human); compound 1.0 µM): 97% | residual activity (BRSK1 (human); compound 10.0 µM): 86% | residual activity (NUAK1 (human); compound 1.0 µM): 32% | residual activity (NUAK1 (human); compound 10.0 µM): 16% | residual activity (EPHB3 (human); compound 1.0 µM): 116% | residual activity (EPHB3 (human); compound 10.0 µM): 103% | residual activity (PIM1 (human); compound 1.0 µM): 81% | residual activity (PIM1 (human); compound 10.0 µM): 73% | residual activity (PKN2 (human); compound 1.0 µM): 90% | residual activity (PKN2 (human); compound 10.0 µM): 84% | residual activity (AURKA (human); compound 1.0 µM): 101% | residual activity (AURKA (human); compound 10.0 µM): 108% | residual activity (MAP2K2 (human); compound 1.0 µM): 87% | residual activity (MAP2K2 (human); compound 10.0 µM): 75% | residual activity (EEF2K (human); compound 1.0 µM): 99% | residual activity (EEF2K (human); compound 10.0 µM): 109% | residual activity (DYRK2 (human); compound 1.0 µM): 73% | residual activity (DYRK2 (human); compound 10.0 µM): 85% | residual activity (PAK4 (human); compound 1.0 µM): 94% | residual activity ([2]; compound 1.0 µM): 87% | residual activity ([2]; compound 10.0 µM): 85% | residual activity (MAP3K5 (human); compound 1.0 µM): 117% | residual activity (MAP3K5 (human); compound 10.0 µM): 111% | residual activity (HIPK3 (human); compound 1.0 µM): 96% | residual activity (HIPK3 (human); compound 10.0 µM): 94% | residual activity (MELK (human); compound 1.0 µM): 49% | residual activity (MELK (human); compound 10.0 µM): 49% | residual activity (MAPK12 (human); compound 1.0 µM): 88% | residual activity (MAPK12 (human); compound 10.0 µM): 100% | residual activity (MARK2 (human); compound 1.0 µM): 101% | residual activity (MARK2 (human); compound 10.0 µM): 95% | residual activity (PAK6 (human); compound 1.0 µM): 98% | residual activity (PAK6 (human); compound 10.0 µM): 110% | residual activity (MAP3K1 (human); compound 1.0 µM): 69% | residual activity (MAP3K1 (human); compound 10.0 µM): 85% | residual activity (MAP3K7 TAB1 (human); compound 1.0 µM): 64% | residual activity (MAP3K7 TAB1 (human); compound 10.0 µM): 78% | residual activity (GSK3B (human); compound 1.0 µM): 74% | residual activity (GSK3B (human); compound 10.0 µM): 89% | residual activity (IRAK4 (human); compound 1.0 µM): 90% | residual activity (IRAK4 (human); compound 10.0 µM): 89% | residual activity (MARK1 (human); compound 1.0 µM): 96% | residual activity (MARK1 (human); compound 10.0 µM): 114% | residual activity (INSR (human); compound 1.0 µM): 96% | residual activity (INSR (human); compound 10.0 µM): 96%

CC(C)C[C@H](NC(=O)CNC(=O)c1cc(Cl)ccc1Cl)B1OC(=O)CC(CC(=O)O)(C(=O)O)O1 (stereo partly specified)
residual activity (PRKCA (human); compound 10.0 µM): 113% | residual activity ([1]; compound 10.0 µM): 83% | residual activity (MAP2K6 (human); compound 10.0 µM): 92% | residual activity (PRKCZ (human)): 95% | residual activity (MAP3K9 (human); compound 10.0 µM): 75% | residual activity (MARK4 (human); compound 10.0 µM): 86% | residual activity (ERBB4 (human); compound 10.0 µM): 72% | residual activity (MAP3K11 (human); compound 10.0 µM): 99% | residual activity (MAPK9 (human)): 87% | residual activity (MST4 (human); compound 10.0 µM): 122% | residual activity (EPHA2 (human); compound 10.0 µM): 98% | residual activity (NTRK1 (human); compound 10.0 µM): 95% | residual activity (MAPKAPK2 (human); compound 10.0 µM): 88% | residual activity (BRSK1 (human); compound 10.0 µM): 90% | residual activity (NUAK1 (human); compound 10.0 µM): 78% | residual activity (EPHB3 (human); compound 10.0 µM): 62% | residual activity (PIM1 (human); compound 10.0 µM): 88% | residual activity (PKN2 (human); compound 10.0 µM): 86% | residual activity (AURKA (human); compound 10.0 µM): 105% | residual activity (MAP2K2 (human); compound 10.0 µM): 94% | residual activity (EEF2K (human); compound 10.0 µM): 83% | residual activity (DYRK2 (human); compound 10.0 µM): 94% | residual activity (PAK4 (human); compound 10.0 µM): 77% | residual activity ([2]; compound 10.0 µM): 124% | residual activity (MAP3K5 (human); compound 10.0 µM): 81% | residual activity (HIPK3 (human); compound 10.0 µM): 118% | residual activity (MELK (human); compound 10.0 µM): 80% | residual activity (MARK2 (human); compound 10.0 µM): 81% | residual activity (PAK6 (human); compound 10.0 µM): 68% | residual activity (MAP3K1 (human); compound 10.0 µM): 92% | residual activity (MAP3K7 TAB1 (human); compound 10.0 µM): 127% | residual activity (GSK3B (human); compound 10.0 µM): 88% | residual activity (IRAK4 (human); compound 10.0 µM): 79% | residual activity (MARK1 (human); compound 10.0 µM): 81% | residual activity (INSR (human); compound 10.0 µM): 58%
